Legend:
[1] = target: ErbB2 V777L (Homo sapiens (Human), UniProt P04626, V777L); test: ErbB enzyme assay (CisBio HTRF-KinEASE-TK), ErbB2 V777L; format: biochemical
Procedure, shortened: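 HTRF KinEASE-TK tyrosine-kinase read-out of substrate phosphorylation after a final 1 h at ambient temperature, from the 655/620 nm emission ratio.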

[2] = target: EGFR WT (Homo sapiens (Human), UniProt P00533); test: ErbB enzyme assay (CisBio HTRF-KinEASE-TK), EGFR WT; format: biochemical; conditions: ATP at Km (25 μM), 1 h incubation
Procedure, shortened: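 Tyrosine kinase HTRF, 1 h RT reaction → quench (Sa-XL665/TK-Ab-Cryptate) → 1 h RT → 655/620 ratio.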

EGFR WT, sequence (P00533 25-1210): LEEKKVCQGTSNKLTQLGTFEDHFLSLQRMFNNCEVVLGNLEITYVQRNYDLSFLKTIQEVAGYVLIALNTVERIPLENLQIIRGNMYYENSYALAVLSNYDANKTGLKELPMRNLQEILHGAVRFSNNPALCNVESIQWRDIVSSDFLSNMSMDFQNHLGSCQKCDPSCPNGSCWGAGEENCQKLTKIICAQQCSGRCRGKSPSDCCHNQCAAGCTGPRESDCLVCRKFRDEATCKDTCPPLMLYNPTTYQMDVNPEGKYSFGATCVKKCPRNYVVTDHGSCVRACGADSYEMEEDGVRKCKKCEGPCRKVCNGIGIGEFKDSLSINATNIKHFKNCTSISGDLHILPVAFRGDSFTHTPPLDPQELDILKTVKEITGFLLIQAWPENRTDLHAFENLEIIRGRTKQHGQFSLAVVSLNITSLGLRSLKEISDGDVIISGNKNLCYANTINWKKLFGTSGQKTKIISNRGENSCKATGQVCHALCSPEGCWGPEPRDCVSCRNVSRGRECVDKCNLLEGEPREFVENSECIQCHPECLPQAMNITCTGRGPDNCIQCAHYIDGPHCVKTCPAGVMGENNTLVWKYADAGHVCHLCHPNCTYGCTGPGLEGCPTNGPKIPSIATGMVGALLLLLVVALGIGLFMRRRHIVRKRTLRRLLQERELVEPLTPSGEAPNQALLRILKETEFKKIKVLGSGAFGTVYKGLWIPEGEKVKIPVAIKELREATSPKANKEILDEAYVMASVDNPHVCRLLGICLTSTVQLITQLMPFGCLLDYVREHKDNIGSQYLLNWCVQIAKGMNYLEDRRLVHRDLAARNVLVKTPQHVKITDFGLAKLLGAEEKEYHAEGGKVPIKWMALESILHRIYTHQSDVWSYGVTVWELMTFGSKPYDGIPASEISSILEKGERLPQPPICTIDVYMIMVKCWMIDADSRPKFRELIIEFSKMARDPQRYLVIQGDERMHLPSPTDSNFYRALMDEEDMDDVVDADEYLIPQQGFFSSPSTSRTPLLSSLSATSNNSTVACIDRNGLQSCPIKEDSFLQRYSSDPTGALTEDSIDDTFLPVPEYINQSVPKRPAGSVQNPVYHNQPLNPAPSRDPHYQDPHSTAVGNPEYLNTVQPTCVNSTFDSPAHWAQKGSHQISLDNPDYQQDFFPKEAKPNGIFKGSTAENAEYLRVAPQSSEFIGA
ErbB2 V777L, sequence (P04626 23-1255 V777L): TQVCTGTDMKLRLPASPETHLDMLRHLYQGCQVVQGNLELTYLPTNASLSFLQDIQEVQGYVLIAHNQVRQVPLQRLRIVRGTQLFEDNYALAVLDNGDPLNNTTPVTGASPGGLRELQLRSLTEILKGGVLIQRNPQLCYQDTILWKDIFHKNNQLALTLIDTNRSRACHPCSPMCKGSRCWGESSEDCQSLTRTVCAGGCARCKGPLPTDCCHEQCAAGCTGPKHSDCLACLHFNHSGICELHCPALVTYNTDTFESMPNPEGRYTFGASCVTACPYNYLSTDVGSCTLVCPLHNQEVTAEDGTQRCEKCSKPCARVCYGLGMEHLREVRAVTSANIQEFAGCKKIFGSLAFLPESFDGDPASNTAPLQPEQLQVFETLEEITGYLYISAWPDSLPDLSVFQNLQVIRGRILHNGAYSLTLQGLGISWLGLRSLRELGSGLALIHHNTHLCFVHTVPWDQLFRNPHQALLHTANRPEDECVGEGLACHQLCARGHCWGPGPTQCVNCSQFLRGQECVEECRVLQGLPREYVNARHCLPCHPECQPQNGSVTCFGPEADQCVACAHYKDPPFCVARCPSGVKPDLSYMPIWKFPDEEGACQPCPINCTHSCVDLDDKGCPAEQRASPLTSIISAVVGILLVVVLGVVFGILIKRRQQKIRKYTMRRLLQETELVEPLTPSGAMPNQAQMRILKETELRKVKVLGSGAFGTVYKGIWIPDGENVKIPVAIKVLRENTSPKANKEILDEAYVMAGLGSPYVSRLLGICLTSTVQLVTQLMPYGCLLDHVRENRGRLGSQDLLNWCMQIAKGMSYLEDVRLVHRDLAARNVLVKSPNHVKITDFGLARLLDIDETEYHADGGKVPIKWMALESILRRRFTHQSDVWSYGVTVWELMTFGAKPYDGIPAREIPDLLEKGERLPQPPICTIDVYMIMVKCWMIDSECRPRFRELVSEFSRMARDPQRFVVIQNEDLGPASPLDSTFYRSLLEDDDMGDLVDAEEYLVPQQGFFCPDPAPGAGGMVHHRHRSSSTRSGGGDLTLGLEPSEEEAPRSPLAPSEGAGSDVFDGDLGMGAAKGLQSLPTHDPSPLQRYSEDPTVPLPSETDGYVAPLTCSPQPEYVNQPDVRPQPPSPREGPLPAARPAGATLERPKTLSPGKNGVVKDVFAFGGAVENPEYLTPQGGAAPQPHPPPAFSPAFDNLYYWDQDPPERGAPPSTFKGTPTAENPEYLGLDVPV

| Compound | IC50 [1] [nM] | IC50 [2] [nM] |
| --- | --- | --- |
| C=CC(=O)N1C[C@@H](N(C)c2ccc3ncnc(Nc4ccc(Oc5ccc6c(c5)nnn6C)c(C)c4)c3n2)C[C@H]1C [Compound 351, 1-((2R,4S)-2-methyl-4-(methyl(4-((3-methyl-4-((1-methyl-H-benzo[d][1,2,3]triazol-5-yl)oxy)phenyl)amino)pyrido[3,2-d]pyrimidin-6-yl)amino)pyrrolidin-1-yl)prop-2-en-1-one] | 100 to 500 | 500 to 1000 |
| C=CC(=O)N1CCN(c2ccc3ncnc(Nc4ccc(Oc5ccc6c(c5)nnn6C)c(C)c4)c3n2)CC[C@@H]1C [Compound 354, (S)-1-(7-methyl-4-(4-((3-methyl-4-((1-methyl-1H-benzo[d][1,2,3]triazol-5-yl)oxy)phenyl)amino)pyrido[3,2-d]pyrimidin-6-yl)-1,4-diazepan-1-yl)prop-2-en-1-one] | 100 to 500 | 500 to 1000 |
| C=CC(=O)N1CCCN(c2ccc3ncnc(Nc4ccc(Oc5ccn6ncnc6c5)c(C)c4)c3n2)C[C@@H]1C [Compound 355, (S)-1-(4-(4-((4-([1,2,4]triazolo[1,5-a]pyridin-7-yloxy)-3-methylphenyl)amino)pyrido[3,2-d]pyrimidin-6-yl)-2-methyl-1,4-diazepan-1-yl)prop-2-en-1-one] | 100 to 500 | ≥ 1000 |
| C=CC(=O)N1CCN(c2ccc3ncnc(Nc4ccc(Oc5ccc6c(c5)nnn6C)c(C)c4)c3n2)CC[C@H]1C [Compound 356, (R)-1-(7-methyl-4-(4-((3-methyl-4-((1-methyl-1H-benzo[d][1,2,3]triazol-5-yl)oxy)phenyl)amino)pyrido[3,2-d]pyrimidin-6-yl)-1,4-diazepan-1-yl)prop-2-en-1-one] | 500 to 1000 | ≥ 1000 |
| C=CC(=O)N1CCCN(c2ccc3ncnc(Nc4ccc(Oc5ccn6ncnc6c5)c(C)c4)c3n2)CC1 [Compound 357, 1-(4-(4-((4-([1,2,4]triazolo[1,5-a]pyridin-7-yloxy)-3-methylphenyl)amino)pyrido[3,2-d]pyrimidin-6-yl)-1,4-diazepan-1-yl)prop-2-en-1-one] | 50 to 100 | 500 to 1000 |
| Cc1c(Oc2ccc3c(c2)nnn3C)ccc(Nc2ncnc3ccc(N4CCN(C(=O)/C=C/CF)[C@H](C)C4)nc23)c1F [Compound 360, (R,E)-4-fluoro-1-(4-(4-((2-fluoro-3-methyl-4-((1-methyl-1H-benzo[d][1,2,3]triazol-5-yl)oxy)phenyl)amino)pyrido[3,2-d]pyrimidin-6-yl)-2-methylpiperazin-1-yl)but-2-en-1-one] | 50 to 100 | 100 to 500 |
| C=C(F)C(=O)N1CCN(c2ccc3ncnc(Nc4ccc(Oc5ccc6c(c5)nnn6C)c(C)c4)c3n2)C[C@H]1COC [Compound 362, (S)-2-fluoro-1-(2-(methoxymethyl)-4-(4-((3-methyl-4-((1-methyl-1H-benzo[d][1,2,3]triazol-5-yl)oxy)phenyl)amino)pyrido[3,2-d]pyrimidin-6-yl)piperazin-1-yl)prop-2-en-1-one] | 500 to 1000 | ≥ 1000 |
| C=C(COC)C(=O)N1CCN(c2ccc3ncnc(Nc4ccc(Oc5ccc6c(c5)nnn6C)c(C)c4)c3n2)CC1 [Compound 366, 2-(methoxymethyl)-1-(4-(4-((3-methyl-4-((1-methyl-1H-benzo[d][1,2,3]triazol-5-yl)oxy)phenyl)amino)pyrido[3,2-d]pyrimidin-6-yl)piperazin-1-yl)prop-2-en-1-one] | 500 to 1000 | ≥ 1000 |
| C=CC(=O)N1CCN(c2ccc3ncnc(Nc4cc(C)c(Oc5ccc6c(c5)ncn6C(F)F)cc4OC)c3n2)CC1 [Compound 370, 1-(4-(4-((4-((1-(difluoromethyl)-1H-benzo[d]imidazol-5-yl)oxy)-2-methoxy-5-methylphenyl)amino)pyrido[3,2-d]pyrimidin-6-yl)piperazin-1-yl)prop-2-en-1-one] | 50 to 100 | 100 to 500 |

Reference: patent US20250129078A1, “ERBB2 INHIBITORS” (Cogent Biosciences, Inc., priority 2023, published 2025)
